In US20230374113A1, “FERRITIN NANOCAGE FUSED WITH PD-L1-BINDING PEPTIDE 1 AND USE THEREOF AS ANTICANCER IMMUNOTHERAPY AGENT” (KYUNGPOOK NATIONAL UNIVERSITY INDUSTRY-ACADEMIC COOPERATION …, priority 2020, published 2023):

Columns and labels:
[1] = Dynamic light scattering (DLS) analysis of cage size; assay type: physicochemical
[2] = tested on: MDA-MB231 cells expressing PD-L1; test: Culture cell binding assay (confocal) on MDA-MB231 cells; assay type: cell-based; settings: 100 nM, 4° C., 1 hour; anti-human ferritin heavy chain antibody staining
Procedure: (§1) Confocal laser scanning microscopy (Confocal) was performed. After culturing triple negative breast cancer cells (MDA-MB 231) or colorectal cancer cells (CT26), a group treated with 25 ng/ml of interferon-γ and a group without treatment were cultured at 37° C. for 24 hours. These cells are cancer cells expressing the PD-L1 receptor and are known to have expression increased upon interferon-γ treatment. […] In order to block nonspecific binding of PD-L1 proteins, blocking was performed using 1% BSA dissolved in PBS at room temperature for 1 hour, then BSA was removed, and PpNF, PpLF, and PpCF (100 nM) were reacted at 4° C. for 1 hour. After washing with PBS, a reaction was performed using anti-human ferritin heavy chain antibodies (1:200 ratio) for 1 hour, followed by staining (green). After fixing with 4% paraformaldehyde, observation was performed under a confocal microscope. To observe the nucleus, DAPI was dissolved in PBS in a ratio of 1:1000, and staining was performed at room temperature for 5-10 minutes (blue).

[3] = tested on: CT26 cells expressing PD-L1; test: Culture cell binding assay (confocal) on CT26 cells; assay type: cell-based, mouse; settings: 100 nM, 4° C., 1 hour; anti-human ferritin heavy chain antibody staining
Procedure: as §1

[4] = tested on: MCF-7 cells that do not express PD-L1; test: Culture cell binding assay (confocal) on MCF-7 control cells; assay type: cell-based; settings: 100 nM, 4° C., 1 hour; PD-L1-negative control cells
PD-1/PD-L1 binding = target: T1, PD-1/PD-L1 binding (Mus musculus, UniProt Q9EP73); test: Co-culture of CT26 cancer cells and activated CD8+ T cells (immune checkpoint inhibitory function in vitro); assay type: cell-based
T1 construct: endogenous in cells
Procedure: CD8^+ T cells were extracted from the spleen obtained by sacrificing BALB/C mice. Extracted CD8^+ T cells were treated with interleukin-2/interleukin-15 and anti-CD-3 antibody/anti-CD-28 antibody each for 24 hours for activation. Prior to treating activated CD8^+ T cells with CFSE and performing symbiotic culture of tumor cells (CT26, mouse colon cancer), tumor cells were pretreated with anti-PD-L1 antibody, PpNF (25 nM or 50 nM), and PD-L1pep1 (50 nM), respectively, and interactions of PD-L1 of tumor cells and […] CD8^+ T cells were inhibited, respectively. After symbiotic culture for 24 hours, CD8^+ T cells were isolated (FIG. 4A). The degree of CFSE binding to isolated T cells was measured with a flow cytometer (FIG. 4B). In addition, the amount of interferon gamma secreted by isolated T cells was measured using an enzyme-linked immunosorbent assay (FIG. 4C).
CD8^+ T cells isolated from mice were activated (IL-2/IL-15 treatment and anti-CD3/anti-CD28 treatment), labeled with fluorescence (CFSE staining), and cultured with CT26 colorectal cancer cells.

GL26 glioblastoma = settings: mouse, in vivo
Procedure: In addition, the glioblastoma targeting effect of the immune checkpoint blocking nanocage was identified. GL26, a glioblastoma cell line, was injected into the left side of the mouse brain to create an orthotopic GBM model and fluorescently labeled PBP1-N-FtH was injected into the tail vein [control: saline, ferritin].

CT26 tumor = assay type: in vivo, BALB/c wildtype mice
Procedure: CT26 cells were injected subcutaneously into the upper right thigh of BALB/c wildtype mice. When the tumor was about 100 mm^3 in size, mice were randomly divided into four groups. […] A total of 10 injections were performed once every two days (once every 4 days, repeated 6 times in total for anti-PD-L1 antibodies) to measure tumor size and weight of mice (FIGS. 7B and 7D). After 3 weeks, the tumor was removed by sacrificing mice and the tumor was weighed (FIG. 7C). The extracellular matrix of the removed tumor was degraded with collagenase to form single cells, and antibodies against labeled proteins of CD4^+ T cells, CD8^+ T cells, and regulatory T cells were each treated to analyze how many T cells are each present in the tumor by flow cytometry (FIGS. 7E to 7G).

[5] = Biotoxicity via blood and serologic analysis; assay type: in vivo, mice
Procedure: After antitumor animal experiments, blood and serum were collected from each group when sacrificing mice, and the amounts of red blood cells, hemoglobin, hematocrit, white blood cells, and neutrophils in the blood, blood urea nitrogen in serum, creatinine, alanine aminotransferase, and aspartate aminotransferase were measured and compared.

[6] = tested on: CT-2A cells overexpressing PD-L1; test: In vitro binding to CT-2A glioma cells; assay type: cell-based, mouse; settings: 4° C., 1 h; compared to wFTH
Procedure: (§2) Mouse glioma cells, CT-2A or GL26 cells, were treated with PpNF or wild-type ferritin (wFTH) at 4° C. for 1 h; binding was monitored by antiferritin antibody (green). Nuclei were visualized by counterstaining with DAPI (blue). Scale bars: 30 μm.

[7] = tested on: GL26 cells overexpressing PD-L1; test: In vitro binding to GL26 glioma cells; assay type: cell-based, mouse; settings: 4° C., 1 h; compared to wFTH
Procedure: as §2

CT-2A glioma [8] = tested on: CT-2A glioma; parameters: species or system C57BL/6 mice; settings: mouse, in vivo, iv
Procedure: (A) Representative images of the upper body of mice. The yellow circle indicates the tumor. C57BL/6 mice were implanted with CT-2A glioma cells (3×10^5). At 14 days after intracranial inoculation, the tumor-bearing mice were intravenously injected with Flamma 675-labeled PpNF or wFTH followed by in vivo scanning with the IVIS imaging system. (B) Ex vivo biodistribution was examined at 24 h postinjection.
B6 mice aged 6-8 weeks were anesthetized with an intraperitoneal injection of Zoletil 50 (20 mg/kg, Virba) and Rompun (4 mg/kg, Bayer). For stereotactic intracranial injections of CT-2A cells, the surgical site was shaved and prepared with 70% ethyl alcohol. After disinfection and incision of the skin, tumor cells were stereotaxically implanted in the brain using the following coordinates: AP=+0.2 mm; ML=+2 mm; DV=−3 mm from the bregma. CT-2A cells (10^4 cells) were resuspended in 3 μl of PBS and implanted at an infusion rate of 3 μl/5 min.
For in vivo targeting of PD-L1pep ferritin nanocages in intracranial brain tumors, CT-2A cells (3×10^5 cells) were resuspended in 3 μl of PBS and implanted in the brain. At 14 days after implantation of CT-2A cells, Flamma 675-labeled Pp1NF, Pp2NF, and wt ferritin were intravenously injected (n=3 mice/group). […] Fluorescence emission values were analyzed as photons per second per centimeter squared per steradian (p/s/cm^2/sr).

CT-2A glioma [9] = test: Antitumor activity in orthotopic CT-2A glioma mouse model; assay type: in vivo, C57BL/6 mice; settings: 5 mg/kg intravenously three times per week, six injections
Procedure: (A) Experimental scheme for antitumor treatments. CT-2A syngeneic mouse brain tumor cells were implanted into the brains of C57BL/6 mice. Treatments were initiated at 7 days after confirming tumor growth by MRI. PpNF (5 mg/kg, n=3) or wFTH (5 mg/kg, n=3) were intravenously injected three times per week. (B) Representative brain MRI images showing tumor growth at 7, 14, and 21 days. The dotted line indicates the tumor region. (C) Tumor volumes measured by MRI. (D) Body weights. Data represent mean±SEM (*p<0.05; t-test). The data presented are representative of three independent experiments. B6 mice aged 6-8 weeks were anesthetized with an intraperitoneal injection of Zoletil 50 (20 mg/kg, Virba) and Rompun (4 mg/kg, Bayer). For stereotactic intracranial injections of CT-2A cells, the surgical site was shaved and prepared with 70% ethyl alcohol. After disinfection and incision of the skin, tumor cells were stereotaxically implanted in the brain using the following coordinates: AP=+0.2 mm; ML=+2 mm; DV=−3 mm from the bregma. CT-2A cells (10^4 cells) were resuspended in 3 μl of PBS and implanted at an infusion rate of 3 μl/5 min. […] Tumor growth was examined by animal MRI (7T BioSpec 70/20USR) in the tumor-bearing mice using Onis 2.5 viewer software, and tumor volume was calculated (Average tumor cross-sectional area (mm^2)×summed thickness of tumor cross-sections (mm).

[10] = tested on: CD8+ T cells cocultured with CT-2A; test: Triple coculture of CD8+ T cells with CT-2A glioma cells and primary glia; assay type: cell-based, mouse; settings: 25 nM, 48 h triple coculture
Procedure: CD8^+ T cells were directly cocultured with CT-2A (A,B) or GL26 (C, D) glioma cells in the presence of glia. Cocultures were treated with 25 nM wild-type nanocage (wFTH), PD-L1pep1 ferritin nanocage (PpNF) or their corresponding buffer (buf), respectively. Fold changes in IFN-γ secretion during triple coculture using (A) CT-2A or (C) GL26 cells with the indicated treatments. T cell-only group was used as a control. (B) Proliferation of CD8^+ T cells during coculture with CT-2A and primary glia. The percentages of daughter cells upon cell division were determined using CellTrace Violet (CTV) dye. (D) Expression of CD107a on the surface of CD8^+ T cells after triple coculture using GL26. The percentages of CD107a^+ populations in live CD8^+ T cells were measured by flow cytometry. All graphs represent mean±SD; n=3 independent wells. […]
(§3) Cocultures were treated with 25 nM ferritin nanocages (PpNF or Pp2NF) including the wild-type nanocage (wFTH) or their corresponding buffer, respectively. […] IFN-γ concentrations were quantified with a mouse IFN-γ ELISA kit (R&D Systems Inc., SMIF00) as previously described. […]
Annexin-V as described above. The percentages of CTV dilution upon cell division were measured by flow cytometry. All flow cytometry data were obtained using a BD FACS Verse cytometer and analyzed by FlowJo software (Tree Star).

[11] = tested on: CD8+ T cells cocultured with GL26; test: Triple coculture of CD8+ T cells with GL26 glioma cells and primary glia; assay type: cell-based, mouse; settings: 25 nM, 48 h triple coculture, IFN-γ secretion, CD107a
Procedure: CD8^+ T cells were directly cocultured with CT-2A (A,B) or GL26 (C, D) glioma cells in the presence of glia. Cocultures were treated with 25 nM wild-type nanocage (wFTH), PD-L1pep1 ferritin nanocage (PpNF) or their corresponding buffer (buf), respectively. Fold changes in IFN-γ secretion during triple coculture using (A) CT-2A or (C) GL26 cells with the indicated treatments. T cell-only group was used as a control. (B) Proliferation of CD8^+ T cells during coculture with CT-2A and primary glia. The percentages of daughter cells upon cell division were determined using CellTrace Violet (CTV) dye. (D) Expression of CD107a on the surface of CD8^+ T cells after triple coculture using GL26. The percentages of CD107a^+ populations in live CD8^+ T cells were measured by flow cytometry. All graphs represent mean±SD; n=3 independent wells. (*p<0.05, **p<0.01, ***p<0.001, and ****p<0.0001; multiple comparisons were conducted using one-way ANOVA followed by Tukey's test.)
Primary glia were cultured from C57BL/6 mice, and the cells were seeded in a 96-well flat bottom plate at a density of 10^4 cells/well. […]
as §3

T1 sequence (Q9EP73 19-290): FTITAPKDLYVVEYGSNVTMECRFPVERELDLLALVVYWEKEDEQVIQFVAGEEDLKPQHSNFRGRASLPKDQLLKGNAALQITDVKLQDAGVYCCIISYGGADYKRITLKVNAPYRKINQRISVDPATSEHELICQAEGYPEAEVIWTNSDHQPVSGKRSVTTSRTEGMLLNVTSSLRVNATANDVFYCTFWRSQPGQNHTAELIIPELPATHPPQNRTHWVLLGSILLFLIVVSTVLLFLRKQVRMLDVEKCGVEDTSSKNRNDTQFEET

IFN-γ secreted by T cells (ELISA) (PD-1/PD-L1 binding; 24 hours co-culture, PpNF 25 nM or 50 nM): IFN-γ increment
Substance: PpNF: Ferritin nanocage: PD-L1-binding peptide 1 (CLQKTPKQC) inserted at nitrogen terminal of human ferritin heavy chain fragment (1-161) with GG linker
cage size (DLS) [1]: about 24 nm | binding in MDA-MB231 cells [2]: bound | binding in CT26 cells [3]: bound | binding in MCF-7 cells [4]: the binding did not take place | immune checkpoint inhibitory effect versus comparators (PD-1/PD-L1 binding; versus PD-L1 antibody, PD-L1pep1 (50 nM)): better than that of PD-L1 antibody or PD-L1pep1 | glioblastoma targeting (brain fluorescence signal) (GL26 glioblastoma): targeted to the tumor site on the left side of the brain | tumor growth (CT26 tumor; 10 mg/kg tail vein, 10 injections once every two days): significantly inhibited tumor growth compared to the control | weight of the tumor (CT26 tumor; after 3 weeks): much smaller | proportion of CD8+ T cells in the tumor (CT26 tumor; flow cytometry): increasing the proportion of CD8^+ T cells in the tumor | ratio of CD8+ T cells and regulatory T cells in the tumor (CT26 tumor; flow cytometry): significantly increased compared to the control | hematologic change ([5]; blood after antitumor animal experiments): no significant hematologic change | hepatotoxicity or nephrotoxicity (BUN, creatinine, ALT, AST) ([5]; serum after antitumor animal experiments): No hepatotoxicity or nephrotoxicity was observed | binding in CT-2A glioma cells [6]: bound specifically | binding in GL26 glioma cells [7]: bound specifically | BBB crossing (CT-2A glioma [8]): crossed the BBB | accumulation in glioblastoma in the brain (CT-2A glioma [8]): accumulated in glioblastoma expressed in the brain by 24 hours | antitumor effects (tumor volume by MRI) (CT-2A glioma [9]): showed antitumor effects | proliferation of CD8+ T cells ([10]; CTV dye): increased | activity of CD8+ T cells ([10]; IFN-γ secretion): increased | activity of CD8+ T cells [11]: increased
